This passage reports t1/2, half-life and Tmax results from US20220218719A1, “MATRIX COMPOSITION COMPRISING (S)-5-BENZYL-N-(5-METHYL-4-OXO-2,3,4,5-TETRAHYDROBENZO[B][1,4]OXAZEPIN-3-YL)-4H-1,2,4-TRIAZOLE-3-CARBOXAMIDE” (GLAXOSMITHKLINE INTELLECTUAL PROPERTY DEVELOPMENT LIMITED, priority 2019, published 2022).

Where two headings read alike, the source gives them in different places.

The conditions of series [1]: plasma/blood, 120 mg dose of IR formulation; cited from earlier work.
Series [2] can be described thus: Early clinical studies: PK profile of Compound 1 given as immediate release (IR) formulation. Type of series: in vivo. The conditions noted are these: human, plasma, oral. How it is done: The formulations used in early clinical studies included a 0.1 mg/mL oral solution to support doses up to 5 mg; active-pharmaceutical-ingredient (API) in HPMC capsules for doses between 5 mg to 120 mg; and roller-compacted IR tablets of 10, 20 and 30 mg strength.
The pharmacokinetic (PK) profile of Compound 1 when administered as an immediate release (IR) formulation was characterized by rapid absorption and elimination with time to maximum concentration (Tmax) of approximately 2 hours post-dose. […] A majority of the systemic exposure to GSK2982772 was associated with the shorter half-life of 2-3 hours.

With `CN1C(=O)[C@@H](NC(=O)c2nnc(Cc3ccccc3)[nH]2)COc2ccccc21` [Compound 1, (S)-5-benzyl-N-(5-methyl-4-oxo-2,3,4,5-tetrahydrobenzo[b][1,4]oxazepin-3-yl)-4H-1,2,4-triazole-3-carboxamide], in series [1], the t1/2 was 2 to 3 h. The half-life in series [2] (phase until approximately 12 hours post-dose, read-out: elimination half-life (t1/2)) was in the range of 120 to 180 min; in series [2] (read-out: slower terminal phase t1/2), 300 to 360 min. Further, in series [2] (post-dose, read-out: time to maximum concentration (Tmax)), the Tmax is ~2 h.
